Experimental data as given in ChEMBL document CHEMBL1131713, “Substituted piperidines--highly potent renin inhibitors due to induced fit adaptation of the active site” (Bioorg Med Chem Lett, 1999).
Calls of active or inactive are those of the source. No cut-off for these calls is given here.

molecular target: T1, Cathepsin D (Bos taurus) (UniProt P80209); assay: Inhibition against bovine cathepsin D; NA means no activity
T1 sequence (whole entry): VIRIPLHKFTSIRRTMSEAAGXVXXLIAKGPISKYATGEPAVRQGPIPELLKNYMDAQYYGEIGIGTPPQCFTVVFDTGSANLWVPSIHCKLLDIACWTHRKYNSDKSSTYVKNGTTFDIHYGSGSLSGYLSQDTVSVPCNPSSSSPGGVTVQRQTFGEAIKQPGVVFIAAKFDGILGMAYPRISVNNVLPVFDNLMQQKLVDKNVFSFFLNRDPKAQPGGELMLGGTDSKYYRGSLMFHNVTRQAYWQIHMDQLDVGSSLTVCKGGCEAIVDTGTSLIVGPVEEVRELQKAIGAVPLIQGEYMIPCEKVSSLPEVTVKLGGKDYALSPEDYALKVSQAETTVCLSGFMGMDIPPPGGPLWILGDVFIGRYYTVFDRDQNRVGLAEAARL

Question: With `COc1ccc(COC2CNCCC2c2ccc(Cl)cc2)cc1` (racemic) as the molecule, how does the Activity read?
Answer: Its Activity is “inactive”.

molecular target: Human immunodeficiency virus type 1 protease (Human immunodeficiency virus 1) (UniProt Q72874); assay: Inhibition against HIV protease; NA means no activity

Question: `COc1ccc(COC2CNCCC2c2ccc(Cl)cc2)cc1` (racemic) was tested. Which Activity did it give?
Answer: The Activity was “inactive”.

molecular target: Pepsin A (Sus scrofa) (UniProt P00791); assay: Inhibition against porcine pepsin; NA means no activity
Sequence (P00791 60-385 limits assumed): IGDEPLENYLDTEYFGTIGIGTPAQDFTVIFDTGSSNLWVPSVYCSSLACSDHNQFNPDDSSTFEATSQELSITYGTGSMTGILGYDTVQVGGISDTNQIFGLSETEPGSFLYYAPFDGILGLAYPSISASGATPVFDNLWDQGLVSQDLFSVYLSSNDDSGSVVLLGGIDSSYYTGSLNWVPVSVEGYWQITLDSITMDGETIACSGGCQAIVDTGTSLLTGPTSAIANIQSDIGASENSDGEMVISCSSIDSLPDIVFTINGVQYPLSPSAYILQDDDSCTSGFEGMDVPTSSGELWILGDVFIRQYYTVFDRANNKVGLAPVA

Question: Which Activity does the source give for `COc1ccc(COC2CNCCC2c2ccc(Cl)cc2)cc1` (racemic) here?
Answer: Its Activity is “inactive”.

molecular target: T2, Renin (Homo sapiens, UniProt P00797); assay: In vitro inhibitory activity against purified recombinant human renin
T2 sequence (P00797 whole entry): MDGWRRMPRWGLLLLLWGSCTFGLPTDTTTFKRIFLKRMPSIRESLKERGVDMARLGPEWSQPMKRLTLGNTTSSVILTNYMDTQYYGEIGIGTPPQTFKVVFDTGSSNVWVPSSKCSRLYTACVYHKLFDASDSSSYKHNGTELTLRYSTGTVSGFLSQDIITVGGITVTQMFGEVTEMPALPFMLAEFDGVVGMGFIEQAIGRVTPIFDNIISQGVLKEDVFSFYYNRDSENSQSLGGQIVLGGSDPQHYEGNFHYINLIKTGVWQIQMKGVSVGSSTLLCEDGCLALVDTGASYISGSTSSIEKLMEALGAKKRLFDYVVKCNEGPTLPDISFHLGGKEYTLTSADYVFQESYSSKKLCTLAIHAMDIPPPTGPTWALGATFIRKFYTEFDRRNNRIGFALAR

Question: For `COc1ccc(CO[C@H]2CNCC[C@@H]2c2ccc(Cl)cc2)cc1`, which IC50 is on record?
Answer: Its IC50 is 26 µM.

Question: `COc1ccc(CO[C@@H]2CNCC[C@H]2c2ccc(Cl)cc2)cc1` was tested. Which IC50 did it give?
Answer: Its IC50 is 1200 µM.

Question: How did the IC50 turn out when `O=C(OCCOc1ccc([C@H]2CCNC[C@@H]2OCc2ccc3ccccc3c2)cc1)c1cccnc1` (racemic) was run?
Answer: The IC50 was 0.58 µM.

Question: `c1ccc(COCCOc2ccc([C@H]3CCNC[C@@H]3OCc3ccc4ccccc4c3)cc2)cc1` (racemic) was tested. Which IC50 did it give?
Answer: The IC50 was 0.053 µM.

Question: For `O=C(OCCOc1ccc([C@H]2CCNC[C@@H]2OCc2ccc3ccccc3c2)cc1)c1ccccc1` (racemic), which IC50 is on record?
Answer: Its IC50 is 0.026 µM.

Question: Which IC50 does the source give for `c1ccc(COCCCOc2ccc([C@H]3CCNC[C@@H]3OCc3ccc4ccccc4c3)cc2)nc1` (racemic) here?
Answer: Its IC50 is 0.21 µM.

Question: Which IC50 does the source give for `O=S(=O)(NCc1ccc([C@H]2CCNC[C@@H]2OCc2ccc3ccccc3c2)cc1)c1ccccc1` (racemic) here?
Answer: Its IC50 is 40 µM.

Question: Which IC50 does the source give for `c1ccc(OCCCOCc2ccc([C@H]3CCNC[C@@H]3OCc3ccc4ccccc4c3)cc2)cc1` (racemic) here?
Answer: The IC50 was 0.54 µM.

Question: How did the IC50 turn out when `O=C(CCCOc1ccc([C@H]2CCNC[C@@H]2OCc2ccc3ccccc3c2)cc1)c1ccccc1` (racemic) was run?
Answer: Its IC50 is 0.22 µM.

Question: Which IC50 does the source give for `COc1cccc(C(=O)OCc2ccc([C@H]3CCNC[C@@H]3OCc3ccc4ccccc4c3)cc2)c1` (racemic) here?
Answer: Its IC50 is 0.087 µM.

Question: With `c1ccc(OCCCCOc2ccc([C@H]3CCNC[C@@H]3OCc3ccc4ccccc4c3)cc2)cc1` (racemic) as the molecule, how does the IC50 read?
Answer: The IC50 was 0.22 µM.

Question: Which IC50 does the source give for `O=C(OCc1ccc([C@H]2CCNC[C@@H]2OCc2ccc3ccccc3c2)cc1)c1ccccc1` (racemic) here?
Answer: Its IC50 is 0.055 µM.

Question: With `c1ccc(COCCCOc2ccc([C@H]3CCNC[C@@H]3OCc3ccc4ccccc4c3)cc2)cc1` (racemic) as the molecule, how does the IC50 read?
Answer: Its IC50 is 0.008 µM.

Question: `c1ccc(CCOCCOc2ccc([C@H]3CCNC[C@@H]3OCc3ccc4ccccc4c3)cc2)cc1` (racemic) was tested. Which IC50 did it give?
Answer: The IC50 was 0.16 µM.

Question: Which IC50 does the source give for `c1ccc(COCCOCc2ccc([C@H]3CCNC[C@@H]3OCc3ccc4ccccc4c3)cc2)cc1` (racemic) here?
Answer: Its IC50 is 0.091 µM.

Question: How did the IC50 turn out when `COc1ccc(COC2CNCCC2c2ccc(Cl)cc2)cc1` (racemic) was run?
Answer: The IC50 was 50 µM.

Question: For `COc1ccccc1COCCCOc1ccc([C@H]2CCNC[C@@H]2OCc2ccc3ccccc3c2)cc1` (racemic), which IC50 is on record?
Answer: Its IC50 is 0.0015 µM.

Question: With `COc1ccc(C(=O)NCc2ccc([C@H]3CCNC[C@@H]3OCc3ccc4ccccc4c3)cc2)cc1` (racemic) as the molecule, how does the IC50 read?
Answer: Its IC50 is > 1000 µM.

Question: For `c1ccc(OCCOCc2ccc([C@H]3CCNC[C@@H]3OCc3ccc4ccccc4c3)cc2)cc1` (racemic), which IC50 is on record?
Answer: Its IC50 is 0.16 µM.

Question: With `c1ccc(COCCCCOc2ccc([C@H]3CCNC[C@@H]3OCc3ccc4ccccc4c3)cc2)cc1` (racemic) as the molecule, how does the IC50 read?
Answer: Its IC50 is 0.1 µM.

Question: With `COc1ccccc1COCCCOc1ccc([C@H]2CCNC[C@@H]2OCc2cc(OC)c3ccccc3c2OC)cc1` (racemic) as the molecule, how does the IC50 read?
Answer: The IC50 was 6e-05 µM.

Question: With `c1ccc(-c2noc(COc3ccc([C@H]4CCNC[C@@H]4OCc4ccc5ccccc5c4)cc3)n2)cc1` (racemic) as the molecule, how does the IC50 read?
Answer: The IC50 was 0.041 µM.

Question: How did the IC50 turn out when `O=C(NCCOc1ccc([C@H]2CCNC[C@@H]2OCc2ccc3ccccc3c2)cc1)c1ccccc1` (racemic) was run?
Answer: The IC50 was 2.6 µM.

Question: `c1ccc(COCCCOCc2ccc([C@H]3CCNC[C@@H]3OCc3ccc4ccccc4c3)cc2)cc1` (racemic) was tested. Which IC50 did it give?
Answer: Its IC50 is 0.74 µM.

Question: For `c1cncc(-c2noc(COc3ccc([C@H]4CCNC[C@@H]4OCc4ccc5ccccc5c4)cc3)n2)c1` (racemic), which IC50 is on record?
Answer: The IC50 was 0.88 µM.

Question: With `CC(C)(C)S(=O)(=O)C[C@@H](Cc1ccccc1)C(=O)N[C@@H](Cc1cnc[nH]1)C(=O)N[C@@H](CC1CCCCC1)[C@@H](O)[C@@H](O)C1CC1` [REMIKIREN] as the molecule, how does the IC50 read?
Answer: The IC50 was 2.5e-05 µM.
